The source of these data is patent US12097172B2, “Prevention and treatment of diabetic nephropathy” (THE CHILDREN'S MEDICAL CENTER CORPORATION, priority 2016, dated 2024).

Where a name gives a salt, the structure may show the parent alone.

Assay [1] deals with CXCR1 and CXCR2. The conditions noted are these: mice; cited from earlier work.
Assay [2] has as its system db/db mice. The experiment in a line: KC/CXCR2 axis blockade with Reparixin in db/db diabetic mice (urinary albumin excretion, glycemia, kidney histopathology). It is filed as in vivo. The source says: Kidneys from db/db mice at 8, 12 and 25 weeks of age were surgically removed using standard techniques. To perform standard light microscopy, kidneys were fixed in 4% buffered paraformaldehyde (PFA), dehydrated, and paraffin-embedded. AxioVision software 4.3 was used to record the images from Periodic Acid Schiff (PAS) and Trichrome staining. The evaluation of mesangial matrix was electronically performed using a macro built on the AxioVision analysis module (Carl Zeiss Spa, Thornwood, NY). Glomeruli were identified as a region of interest (ROI) and mesangium was highlighted by a color threshold protocol. Binary images were then produced and mesangium was automatically calculated as percentage of the glomerular area. Image acquisition was performed with a Zeiss Axioscope 40FL microscope and AxioCam MRc5 digital video camera (Carl Zeiss SpA). AxioVision software 4.3 was used to record images and AxioVision analysis module to analyze the results (Carl Zeiss SpA). In order to assess the potential role of IL8 blockade in DN progression, 7 weeks old db/db mice were treated with Reparixin 15 mg/kg (ip) twice a day for 18 weeks (up to 25 weeks of age). Briefly, animals were housed in metabolic cages (Nalgene) to separate feces and urine within a light-controlled environment and provided with water ad-libitum. Sample collection tubes passed below the cages and through small holes in the bottom of the light controlled environment. Urine samples from db/db mice were collected through a metabolic cage at week 8, 12, and 25. The BeadLyte Mouse Multi-cytokine Beadmaster Kit (Millipore, Billerica, MA) was used according to the manufacturer's protocol to determine cytokine levels of IL8. Briefly, the supernatant was incubated with beads conjugated to the IL8 alone for a specified amount of time, and then with biotinylated reporters and streptavidin-phycoerythrin solution for 30 min. A Luminex100 reader (Luminex Corporation, Austin, TX) was used to measure the sample cytokine level. All in vitro and in vivo experimental data presented herein in the examples were performed in triplicate, unless indicated otherwise. Proteinuria in db/db mice was performed in 10 untreated and 30 treated animals. Prism statistical software (La Jolla, CA—USA) was used for data analysis. […] For discrete variables, χ^2 test was used. For all tests, p<0.05 was considered significant.

Assay [3] has as its system Human podocyte cells. The experiment in a line: IL8 challenge of human podocytes in vitro (stress fibers, cortical actin, cell blebbing, synaptopodin). It is filed as cell-based. The protocol: Human podocyte cells bearing a transgene for the thermosensitive (ts58A) variant of the SV40 T antigen, which make them responsive to interferon-γ for proliferation, were cultured and allowed to grow to 80% confluence at 33° C. (designated as day 0). Cells were then thermoshifted to 37° C., causing inactivation of the SV40 T antigen and cessation of cell replication. Podocytes were cultured at different glucose concentrations (normal glucose: 5 mM [NG]; high glucose: 30 mM [HG]) for 5 days. Mannitol was used as an osmotic control for high glucose (mannitol 20 mM+glucose 10 mM) (FIGS. 10A and 10B).
Podocytes were grown on round glass coverslips (VWR, Radnor, PA) were fixed with paraformaldehyde and then permeabilized with 0.3% Triton X-100 (Fisher Scientific, Waltham, MA). Cells were incubated with rhodamine phalloidin (Invitrogen, Carlsbad, CA) to label F-actin networks and visualize stress fibers. Standard fluorescent microscopy was used to assess stress fiber formation. The percentage of cells containing intact actin filaments was assessed by manual cell counting.

Take `C[C@@H](C(=O)NS(C)(=O)=O)c1ccc(OS(=O)(=O)C(F)(F)F)cc1` [Ladarixin, R(-)-2-[(4′-trifluoromethanesulfonyloxy)phenyl] propionyl-methanesulfonamide sodium salt]: the “effect on type 1 diabetes” value in assay [1] was “able to block and revert type 1 diabetes in mice”.

Consider `CC(C)Cc1ccc([C@@H](C)C(=O)NS(C)(=O)=O)cc1` [Reparixin, R(-)-2-[(4-isobutylphenyl)propionyl]-methanesulfonamide], for which the “mesangial expansion (kidney histopathology)” value in assay [2] (db/db mice at 25 weeks of age, treated vs control mice) is “reduced mesangial expansion”. Also, in assay [2] (db/db mice at 25 weeks of age, Reparixin 15 mg/kg ip twice a day for 18 weeks, p<0.01 vs Ctrl), the “urinary albumin excretion (UAE)” value came to 211.1 ± 24.4 µg/mL. In assay [2] (db/db mice, weeks 8, 12 and 25, Reparixin 15 mg/kg ip twice a day), the “urinary albumin levels over time” value is listed as “remained stable over time”. Moreover, in assay [2] (db/db mice, Reparixin 15 mg/kg ip twice a day for 18 weeks), the “effect on glycemic control” value is listed as “No effect”. Further, the “rescue from IL8 induced damage (loss of stress fibers; increase cortical actin; cell blebbing; loss of synaptopodin expression)” value in assay [3] (reparixin 100 μM, IL8 100 nM, normal glucose and high glucose) is listed as “able to rescue podocytes from IL8 induced damage”.

Turning to “IL8: Interleukin-8 chemokine, ligand of CXCR1 and CXCR2, used as challenge on podocytes”, in assay [3] (IL8 100 nM, NG and HG, Ctrl vs. IL8 p<0.05), the “stress fibers (phalloidin staining)” value is on record as “loss of stress fibers”. Further, in assay [3] (IL8 treatment, NG and HG), the cell morphology result is “cell blebbing” and the cortical actin entry is “dose dependent increase in cortical actin”.
